In US7709507B2 (Allergan, Inc., priority 2006, dated 2010):

Columns and labels:
Type in all cases: cell-based
alpha2C receptor = biological target: T1, alpha2C receptor (Homo sapiens, UniProt P18825); assay: Receptor Selection and Amplification Technology (RSAT) assay, Alpha 2C
T1 construct: expressed in transfected cells; host or cells: NIH-3T3 cells
T1 sequence (P18825 1-462): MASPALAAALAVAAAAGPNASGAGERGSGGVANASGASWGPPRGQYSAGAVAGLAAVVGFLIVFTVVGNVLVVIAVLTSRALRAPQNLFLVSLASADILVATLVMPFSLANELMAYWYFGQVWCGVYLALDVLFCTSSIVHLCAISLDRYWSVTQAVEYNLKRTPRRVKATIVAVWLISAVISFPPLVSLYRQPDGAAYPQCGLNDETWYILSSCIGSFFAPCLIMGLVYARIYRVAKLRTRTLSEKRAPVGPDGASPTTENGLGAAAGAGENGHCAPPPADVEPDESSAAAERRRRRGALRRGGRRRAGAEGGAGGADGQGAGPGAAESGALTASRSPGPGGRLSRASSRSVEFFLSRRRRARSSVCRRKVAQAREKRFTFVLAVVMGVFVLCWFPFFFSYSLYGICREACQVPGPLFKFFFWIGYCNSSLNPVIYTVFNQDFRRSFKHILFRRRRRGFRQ
Procedure: (§1) Receptor Selection and Amplification Technology (RSAT) Assay
(§2) The RSAT assay measures a receptor-mediated loss of contact inhibition that results in selective proliferation of receptor-containing cells in a mixed population of confluent cells. The increase in cell number is assessed with an appropriate transfected marker gene such as β-galactosidase, the activity of which can be easily measured in a 96-well format. Receptors that activate the G protein, Gq, elicit this response. Alpha2 receptors, which normally couple to Gi, activate the RSAT response when coexpressed with a hybrid Gq protein that has a Gi receptor recognition domain, called Gq/i5.
(§3) NIH-3T3 cells are plated at a density of 2×10^6 cells in 15 cm dishes and maintained in Dulbecco's modified Eagle's medium supplemented with 10% calf serum. One day later, cells are cotransfected by calcium phosphate precipitation with mammalian expression plasmids encoding p-SV-β-galactosidase (5-10 μg), receptor (1-2 μg) and G protein (1-2 μg). 40 μg salmon sperm DNA may also be included in the transfection mixture. […] Cells are thawed and 100 μl added to 100 μl aliquots of various concentrations of drugs in triplicate in 96-well dishes. Incubations continue 72-96 hr at 37° C. After washing with phosphate-buffered saline, β-galactosidase enzyme activity is determined by adding 200 μl of the chromogenic substrate (consisting of 3.5 mM o-nitrophenyl-β-D-galactopyranoside and 0.5% nonidet P-40 in phosphate buffered saline), incubating overnight at 30° C. and measuring optical density at 420 nm. The absorbance is a measure of enzyme activity, which depends on cell number and reflects a receptor-mediated cell proliferation. The efficacy or intrinsic activity is calculated as a ratio of the maximal effect of the drug to the maximal effect of a standard full agonist for each receptor subtype. Brimonidine, also called UK14304, the chemical structure of which is shown below, is used as the standard agonist for the alpha2A, alpha2B and alpha2C receptors. The EC50 is the concentration at which the drug effect is half of its maximal effect.
(§4) EC50 values are nanomolar. NA stands for “not active” at concentrations less than 10 micromolar. IA stands for “intrinsic activity.”

alpha2B receptor = biological target: T2, alpha2B receptor (Homo sapiens, UniProt P18089); assay: Receptor Selection and Amplification Technology (RSAT) assay, Alpha 2B; conditions: for EC50: RSAT, transfected NIH-3T3 cells with Gq/i5, not active = at concentrations less than 10 micromolar, read-out: Alpha 2B EC50; for Alpha 2B IA (intrinsic activity): ratio of maximal effect to that of standard full agonist brimonidine (UK14304)
T2 construct: expressed in transfected cells; host or cells: NIH-3T3 cells
T2 sequence (P18089 1-450): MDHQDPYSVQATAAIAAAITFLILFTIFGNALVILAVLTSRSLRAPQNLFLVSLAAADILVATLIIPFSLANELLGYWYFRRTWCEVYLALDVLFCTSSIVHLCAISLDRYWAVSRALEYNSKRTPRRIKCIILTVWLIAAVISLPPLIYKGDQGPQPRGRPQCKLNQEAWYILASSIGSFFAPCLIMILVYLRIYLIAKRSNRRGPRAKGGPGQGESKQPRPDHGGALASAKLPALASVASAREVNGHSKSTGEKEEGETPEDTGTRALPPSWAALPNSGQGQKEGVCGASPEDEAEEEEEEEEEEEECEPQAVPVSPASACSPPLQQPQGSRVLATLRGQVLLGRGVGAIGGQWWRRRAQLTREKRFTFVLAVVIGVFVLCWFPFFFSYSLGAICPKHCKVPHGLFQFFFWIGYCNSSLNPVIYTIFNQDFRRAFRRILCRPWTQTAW
Procedure: as §1, §2
NIH-3T3 cells are plated at a density of 2×10^6 cells in 15 cm dishes and maintained in Dulbecco's modified Eagle's medium supplemented with 10% calf serum. One day later, cells are cotransfected by calcium phosphate precipitation with mammalian expression plasmids encoding p-SV-β-galactosidase (5-10 μg), receptor (1-2 μg) and G protein (1-2 μg). 40 μg salmon sperm DNA may also be included in the transfection mixture. Fresh media is added on the following day and 1-2 days later, cells are harvested and frozen in 50 assay aliquots. Cells are thawed and 100 μl added to 100 μl aliquots of various concentrations of drugs in triplicate in 96-well dishes. Incubations continue 72-96 hr at 37° C. After washing with phosphate-buffered saline, β-galactosidase enzyme activity is determined by adding 200 μl of the chromogenic substrate (consisting of 3.5 mM o-nitrophenyl-β-D-galactopyranoside and 0.5% nonidet P-40 in phosphate buffered saline), incubating overnight at 30° C. and measuring optical density at 420 nm. The absorbance is a measure of enzyme activity, which depends on cell number and reflects a receptor-mediated cell proliferation. The efficacy or intrinsic activity is calculated as a ratio of the maximal effect of the drug to the maximal effect of a standard full agonist for each receptor subtype. Brimonidine, also called UK14304, the chemical structure of which is shown below, is used as the standard agonist for the alpha2A, alpha2B and alpha2C receptors. The EC50 is the concentration at which the drug effect is half of its maximal effect.
The results of the RSAT assay with several exemplary compounds of the invention are disclosed in Table 1 above together with the chemical formulas of these exemplary compounds. EC50 values are nanomolar. NA stands for “not active” at concentrations less than 10 micromolar. IA stands for “intrinsic activity.”

alpha2A receptor = biological target: T3, alpha2A receptor (Homo sapiens, UniProt P08913); assay: Receptor Selection and Amplification Technology (RSAT) assay, Alpha 2A; conditions: for Alpha 2A EC50 / EC50: RSAT, transfected NIH-3T3 cells with Gq/i5, not active = at concentrations less than 10 micromolar; for EC50: read-out: Alpha 2A EC50; for Alpha 2A IA (intrinsic activity): ratio of maximal effect to that of standard full agonist brimonidine (UK14304)
T3 construct: expressed in transfected cells; host or cells: NIH-3T3 cells
T3 sequence (P08913 1-465): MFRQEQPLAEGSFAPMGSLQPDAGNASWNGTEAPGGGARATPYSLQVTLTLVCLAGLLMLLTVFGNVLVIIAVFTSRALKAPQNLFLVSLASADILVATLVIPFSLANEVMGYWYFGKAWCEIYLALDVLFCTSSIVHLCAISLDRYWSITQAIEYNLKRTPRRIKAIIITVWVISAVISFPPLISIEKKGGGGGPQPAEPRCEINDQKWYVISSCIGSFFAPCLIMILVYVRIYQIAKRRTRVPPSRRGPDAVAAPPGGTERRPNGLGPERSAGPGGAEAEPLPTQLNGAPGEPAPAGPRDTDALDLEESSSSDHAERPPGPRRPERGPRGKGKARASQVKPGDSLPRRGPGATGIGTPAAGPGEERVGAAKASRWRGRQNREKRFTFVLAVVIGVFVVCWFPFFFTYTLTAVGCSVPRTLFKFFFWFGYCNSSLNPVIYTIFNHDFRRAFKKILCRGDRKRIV
Procedure: as §1, §2, §3, §4

[1] = RSAT, transfected NIH-3T3 cells with Gq/i5, not active = at concentrations less than 10 micromolar

Row | Structure (SMILES) | Alpha 2C EC50 (alpha2C receptor; [1]) | EC50 (alpha2B receptor) [nM] | Alpha 2B IA (intrinsic activity) (alpha2B receptor) | Alpha 2A EC50 (alpha2A receptor) | EC50 (alpha2A receptor) [nM] | Alpha 2A IA (intrinsic activity) (alpha2A receptor) | EC50 (alpha2C receptor; RSAT, transfected NIH-3T3 cells with Gq/i5, not active = at concentrations less than 10 micromolar, read-out: Alpha 2C EC50) [nM] | Alpha 2C IA (intrinsic activity) (alpha2C receptor; ratio of maximal effect to that of standard full agonist brimonidine (UK14304))
1 | O=C(NCCF)NC(Cc1ccc(F)c(F)c1)c1ccncc1 (stereo not shown) [1-[2-(3,4-difluoro-phenyl)-1-pyridin-4-yl-ethyl]-3-(2-fluoro-ethyl)-urea] | not active | 3620 | 0.44 | not active |  |  |  | 
2 | O=C(NCCF)NC(Cc1ccccc1Cl)c1ccccc1 (stereo not shown) | not active | 606 | 0.63 | not active |  |  |  | 
3 | Cc1cccc(C(Cc2ccccn2)NC(=O)NCCF)c1 (stereo not shown) [1-(2-fluoro-ethyl)-3-(2-pyridin-2-yl-1-m-tolyl-ethyl)-urea] | not active | 135 | 0.87 | not active |  |  |  | 
4 | O=C(NCCF)NC(Cc1ccncc1)c1cccc(Cl)c1 (stereo not shown) [1-[1-(3-chloro-phenyl)-2-pyridin-4-yl-ethyl]-3-(2-fluoro-ethyl)-urea] | not active | 30.7 | 1.32 |  | 368 | 0.57 |  | 
5 | O=C(NCCF)NC(Cc1ccccc1)c1cccc(Cl)c1F (stereo not shown) [1-[1-(3-chloro-2-fluorophenyl)-2-phenylethyl]-3-(2-fluoroethyl)urea] | not active | 138 | 1.0 | not active |  |  |  | 
6 | Cc1cccc(CC(NC(=O)NCCF)c2cccc(Cl)c2)c1 (stereo not shown) [1-[1-(3-chloro-phenyl)-2-m-tolyl-ethyl]-3-(2-fluoro-ethyl)-urea] | not active | 5.99 | 0.9 |  | 70.4 | 0.35 |  | 
7 | O=C(NCCF)NC(Cc1ccc(F)cc1)c1cccnc1 (stereo not shown) [1-(2-fluoro-ethyl)-3-[2-(4-fluoro-phenyl)-1-pyridin-3-yl-ethyl]-urea] | not active | 2780 | 0.49 | not active |  |  |  | 
8 | O=C(NCCF)NC(Cc1cccc(F)c1)c1ccccc1 (stereo not shown) [N-(2-fluoroethyl)-N′-[2-(3-fluorophenyl)-1-phenylethyl]urea] | not active | 26 | 0.95 | not active |  |  |  | 
9 | O=C(NCCF)NC(Cc1ccccc1)c1ccc(Cl)cc1 (stereo not shown) | not active | 177 | 0.55 | not active |  |  |  | 
10 | O=C(NCCF)NC(Cc1ccccc1F)c1cccnc1 (stereo not shown) [1-(2-fluoro-ethyl)-3-[2-(2-fluoro-phenyl)-1-pyridin-3-yl-ethyl]-urea] | not active | 747 | 0.78 | not active |  |  |  | 
11 | O=C(NCCF)NC(Cc1ccccc1)c1ccc(O)cc1 (stereo not shown) | not active | 146 | 0.82 | not active |  |  |  | 
12 | O=C(NCCF)NC(Cc1ccccc1)c1ccccc1F (stereo not shown) |  | 103 | 0.79 |  | 2140 | 0.35 | 101 | 0.31
13 | Cc1cccc(C(Cc2cccnc2)NC(=O)NCCF)c1 (stereo not shown) [1-(2-fluoro-ethyl)-3-(2-pyridin-3-yl-1-m-tolyl-ethyl)-urea] | not active | 53.2 | 0.95 | not active |  |  |  | 
14 | O=C(NCCF)NC(Cc1ccccc1)c1cccc(Br)c1 (stereo not shown) [1-[1-(3-Bromophenyl)-2-phenylethyl]-3-(2-fluoroethyl)urea] | not active | 173 | 0.86 | not active |  |  |  | 
15 | Cc1ccc(C(Cc2ccccc2)NC(=O)NCCF)cc1 (stereo not shown) [1-(2-fluoroethyl)-3-[1-(4-methylphenyl)-2-phenylethyl]urea] | not active | 218 | 0.53 | not active |  |  |  | 
